Source: US20160002273A1, “THIENO[3,2-D]PYRIMIDINE-6-CARBOXAMIDES AND ANALOGUES AS SIRTUIN MODULATORS” (GLAXOSMITHKLINE LLC, priority 2013, published 2016)
Values after ≈ are worked out from the molar mass of the structure shown. Like-named read-outs stand apart in the source and are kept apart here.

Legend:
[1] = HPLC based lipophilicity assay (CHI LogD); type: physicochemical; details: CHI values by reverse phase HPLC transformed to a LogD scale
[2] = Kinetic solubility by chemi-luminescent nitrogen detection (CLND); type: physicochemical; details: aqueous buffer, kinetic from dmso stock, DMSO stock incubated 1 hr in phosphate buffered saline pH 7.4, filtered
CYP 1A2 = biological target: T1, CYP 1A2 (Homo sapiens, UniProt P05177); experiment: CYP inhibition 1A2; type: in vitro ADME
T1 sequence (P05177 1-516): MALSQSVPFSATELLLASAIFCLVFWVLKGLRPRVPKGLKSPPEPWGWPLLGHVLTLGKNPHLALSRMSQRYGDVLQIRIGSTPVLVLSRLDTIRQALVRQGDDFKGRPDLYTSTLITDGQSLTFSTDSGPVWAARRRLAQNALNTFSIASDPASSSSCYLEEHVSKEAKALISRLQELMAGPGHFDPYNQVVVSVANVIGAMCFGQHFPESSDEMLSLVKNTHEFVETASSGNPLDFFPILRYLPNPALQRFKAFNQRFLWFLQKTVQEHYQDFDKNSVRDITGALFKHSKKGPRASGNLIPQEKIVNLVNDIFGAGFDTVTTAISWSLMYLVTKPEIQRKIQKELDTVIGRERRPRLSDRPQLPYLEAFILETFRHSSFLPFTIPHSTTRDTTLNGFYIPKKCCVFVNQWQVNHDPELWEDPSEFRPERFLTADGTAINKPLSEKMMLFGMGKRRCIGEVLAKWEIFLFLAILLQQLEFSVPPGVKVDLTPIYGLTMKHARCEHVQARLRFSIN

CYP 2C19 = CYP 2C19 (Homo sapiens, UniProt P33261); experiment: CYP inhibition 2C19; type: in vitro ADME
CYP 2D6 = CYP 2D6 (Homo sapiens, UniProt P10635); experiment: CYP inhibition 2D6; type: in vitro ADME
CYP 3A4 = CYP 3A4 (Homo sapiens, UniProt P08684); experiment: CYP inhibition 3A4; type: in vitro ADME
[3] = Stability in human microsomes; type: in vitro ADME
[4] = Stability in mouse microsomes; type: in vitro ADME
[5] = system: sirtuin mediated deacetylation of acetyl-p65; experiment: Acetyl-p65 assay in U2OS cells (AlphaScreen); type: cell-based; details: FIG. 6
Protocol: In certain embodiments, U2OS cells were counted by hemocytometer and diluted to a concentration of 1.5×10^5 cell/ml. BacMam p65 and BacMam p300-HAT viruses were added to the diluted cells at 1% and 1% (vol/vol). 40 μl aliquots of the cell suspensions containing the viruses were plated onto a 384 well plate with a multi-drop dispenser. After 7 hours, a 2-fold serial dilution of Compounds 25, 28 and Compound 4, hereafter referred to as the test compounds, was carried out in DMSO. The test compounds were subsequently diluted with medium (20-fold) in an intermediate compound plate, and 4 μL of each test compound was transferred by a liquid handler from the intermediate plate to a cell plate. 24 hours post viral transduction, the medium in the cell plate was removed by inverting and flicking the plate, and blotting the plate with paper towels. 30 μl of lysis buffer (25 mM HEPES pH 7.4, 0.5% Triton X-100, 1 mg/ml Dextran 500, 0.1% BSA, 300 mM NaCl, 2 mM MgCl2, 1×protease inhibitor cocktail) was added to each well to lyse the cells. After incubation of the cells with lysis buffer for 30 minutes at room temp, 10 μl and 3 μl aliquots of the cell lysates were transferred to assay plates, and the assay plate containing 3 μl aliquot of cell lysates was diluted with an additional 7 μl of lysis buffer to obtain a final volume of 10 μl. Acetyl-p65 and total p65 protein in cell lysates were measured using the AlphaScreen assay format (PerkinElmer). The antibodies used to detect acetyl-p65 protein were biotinylated anti-HA antibody (Roche, 12158167001) and anti-acetylated K310-p65 antibody (Abcam, ab19870). The antibodies used to detect total p65 protein were biotinylated anti-HA antibody (Roche, 12158167001) and anti-p65 antibody (Santa Cruz, sc109). […] After incubating the plates for another 2 hrs in the dark, the plates were read by a PHERAstar microplate reader. […]

SIRT2 = biological target: T2, SIRT2 (Homo sapiens, UniProt Q8IXJ6); experiment: SIRT2 deacetylation of Trp 5-mer peptide, OAADPr mass spec assay; type: biochemical; design: His-SIRT2(1-389)
T2 sequence (Q8IXJ6 1-389): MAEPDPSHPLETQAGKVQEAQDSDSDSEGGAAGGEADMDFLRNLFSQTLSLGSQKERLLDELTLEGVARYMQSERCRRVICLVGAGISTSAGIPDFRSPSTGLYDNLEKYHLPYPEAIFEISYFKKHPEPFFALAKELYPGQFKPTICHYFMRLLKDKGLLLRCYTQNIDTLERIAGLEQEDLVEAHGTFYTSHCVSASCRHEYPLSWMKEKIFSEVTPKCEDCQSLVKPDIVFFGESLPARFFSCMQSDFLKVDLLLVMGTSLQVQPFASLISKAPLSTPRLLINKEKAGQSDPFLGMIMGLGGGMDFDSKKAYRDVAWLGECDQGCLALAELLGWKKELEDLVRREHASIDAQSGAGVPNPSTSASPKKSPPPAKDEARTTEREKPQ

SIRT1 = biological target: T3, SIRT1 (Homo sapiens, UniProt Q96EB6); experiment: SIRT1 deacetylation of Trp 5-mer peptide, OAADPr mass spec assay
T3 sequence (Q96EB6 1-747): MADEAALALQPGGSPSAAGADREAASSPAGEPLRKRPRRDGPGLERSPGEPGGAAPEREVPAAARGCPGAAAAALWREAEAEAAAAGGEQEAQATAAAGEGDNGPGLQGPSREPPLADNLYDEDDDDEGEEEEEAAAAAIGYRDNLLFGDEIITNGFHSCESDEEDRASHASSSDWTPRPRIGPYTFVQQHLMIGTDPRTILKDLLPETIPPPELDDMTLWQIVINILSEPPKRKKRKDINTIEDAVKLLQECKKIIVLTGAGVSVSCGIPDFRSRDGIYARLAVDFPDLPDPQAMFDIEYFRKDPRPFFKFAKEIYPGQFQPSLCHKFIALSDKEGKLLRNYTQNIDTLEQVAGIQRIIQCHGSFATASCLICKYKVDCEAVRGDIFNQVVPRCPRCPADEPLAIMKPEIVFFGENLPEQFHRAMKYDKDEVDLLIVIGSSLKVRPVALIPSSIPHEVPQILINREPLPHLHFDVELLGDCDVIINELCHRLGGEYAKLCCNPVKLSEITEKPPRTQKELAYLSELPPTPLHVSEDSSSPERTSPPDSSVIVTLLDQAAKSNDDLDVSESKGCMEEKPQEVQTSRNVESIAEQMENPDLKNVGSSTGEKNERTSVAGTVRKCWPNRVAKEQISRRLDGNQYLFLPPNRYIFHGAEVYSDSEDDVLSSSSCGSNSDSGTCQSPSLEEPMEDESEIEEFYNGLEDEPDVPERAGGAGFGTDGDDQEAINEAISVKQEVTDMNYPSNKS
Protocol: All assays were performed at room temperature in reaction buffer (50 mM HEPES, pH 7.5, 150 mM NaCl, 1 mM DTT, 0.05% BSA). […] To prepare the assays for analysis, 20 μL of reaction volume was mixed in 80 μL of 50:50 acetonitrile:methanol mixture. […] Peak data was integrated using RapidFire Integrator software (Agilent, Santa Clara, Calif.).

Chain of CYP 2D6 (P10635 whole entry): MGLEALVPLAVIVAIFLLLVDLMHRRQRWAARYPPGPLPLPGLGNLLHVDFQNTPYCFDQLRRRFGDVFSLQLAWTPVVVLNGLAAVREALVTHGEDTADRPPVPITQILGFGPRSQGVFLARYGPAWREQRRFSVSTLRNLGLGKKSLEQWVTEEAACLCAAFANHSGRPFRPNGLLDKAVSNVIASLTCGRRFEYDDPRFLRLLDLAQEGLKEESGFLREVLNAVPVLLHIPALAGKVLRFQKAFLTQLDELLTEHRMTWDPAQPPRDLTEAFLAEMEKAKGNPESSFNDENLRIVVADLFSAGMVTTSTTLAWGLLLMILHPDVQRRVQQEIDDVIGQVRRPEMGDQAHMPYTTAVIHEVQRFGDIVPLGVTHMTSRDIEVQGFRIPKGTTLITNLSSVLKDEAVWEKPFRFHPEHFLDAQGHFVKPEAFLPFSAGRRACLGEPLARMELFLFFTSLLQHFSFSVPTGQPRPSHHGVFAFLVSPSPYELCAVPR
Chain of CYP 2C19 (P33261 whole entry): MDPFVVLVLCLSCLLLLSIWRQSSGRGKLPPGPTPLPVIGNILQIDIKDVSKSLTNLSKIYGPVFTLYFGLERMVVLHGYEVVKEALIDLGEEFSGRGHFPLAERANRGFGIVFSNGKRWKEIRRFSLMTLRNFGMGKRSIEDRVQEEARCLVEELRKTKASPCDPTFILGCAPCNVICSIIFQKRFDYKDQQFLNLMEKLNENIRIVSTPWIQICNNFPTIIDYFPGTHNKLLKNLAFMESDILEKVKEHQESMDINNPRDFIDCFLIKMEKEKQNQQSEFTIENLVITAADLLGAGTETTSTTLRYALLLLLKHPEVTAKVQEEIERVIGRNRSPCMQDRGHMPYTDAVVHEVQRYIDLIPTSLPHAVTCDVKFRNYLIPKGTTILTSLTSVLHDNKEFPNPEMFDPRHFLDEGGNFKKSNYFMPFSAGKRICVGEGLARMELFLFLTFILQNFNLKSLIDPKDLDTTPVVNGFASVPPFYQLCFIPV
Chain of CYP 3A4 (P08684 whole entry): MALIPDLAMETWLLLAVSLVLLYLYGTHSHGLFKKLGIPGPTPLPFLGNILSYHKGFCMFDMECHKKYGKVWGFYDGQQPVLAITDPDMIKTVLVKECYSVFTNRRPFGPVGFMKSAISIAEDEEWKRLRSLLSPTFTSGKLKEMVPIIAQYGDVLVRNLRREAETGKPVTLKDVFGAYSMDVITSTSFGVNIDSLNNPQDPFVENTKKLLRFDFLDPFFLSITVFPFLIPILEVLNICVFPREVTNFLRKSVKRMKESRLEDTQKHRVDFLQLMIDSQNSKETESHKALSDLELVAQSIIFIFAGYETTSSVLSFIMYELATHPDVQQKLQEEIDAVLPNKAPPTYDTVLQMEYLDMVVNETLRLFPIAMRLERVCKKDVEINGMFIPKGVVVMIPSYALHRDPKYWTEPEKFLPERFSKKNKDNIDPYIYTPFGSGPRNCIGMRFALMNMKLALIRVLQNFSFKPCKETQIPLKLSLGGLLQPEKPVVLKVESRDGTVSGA

CC(C)(C)C(=O)NCCC1CCN(c2ncnc3cc(C(N)=O)sc23)CC1 [Compound 28, 4-(4-(2-pivalamidoethyl)piperidin-1-yl)thieno[3,2-d]pyrimidine-6-carboxamide]
LogD [1]: 2.73
solubility at 1 hr [2]: 297 µM (≈ 116 µg/mL)
CYP 1A2 (CYP 1A2): > 50 µM
CYP 2C19 (CYP 2C19): > 50 µM
CYP 2D6 (CYP 2D6): > 50 µM
CYP 3A4 (CYP 3A4): > 50 µM
Human CLint [3]: 15.8 µL/min/mg
Mouse CLint [4]: 12.7 µL/min/mg
inhibition of sirtuin mediated deacetylation of acetyl-p65 [5]: inhibit
IC50 (SIRT2; Trp 5-mer peptide and NAD at KM, mean of at least three determinations, read-out: IC50 (μM) SIRT2): 0.01 µM
IC50 (SIRT2; Trp 5-mer peptide, class symbols, read-out: Trp SIRT2_IC50): < 1 µM
IC50 (SIRT1; Trp SIRT1_IC50, Trp 5-mer peptide, class symbols): < 1 µM
IC50 (SIRT1; read-out: IC50 (μM) SIRT1, Trp 5-mer peptide and NAD at KM, mean of at least three determinations): 0.015 µM
